Measured values from patent US20200352163A1, “ANTIMICROBIAL MIXTURE CONTAINING 4-(3-ETHOXY-4-HYDROXYPHENYL)BUTAN-2-ONE AND AN AROMATIC ALCOHOL, AND COSMETIC COMPOSITION CONTAINING SAME” (L'OREAL, priority 2017, published 2020).

What was measured:
Experiment in all cases: MIC / FIC synergy test in 96-well microplate, optical density at 620 nm
Type in all cases: cell-based
Conditions in all cases: for microbial growth percentage: weight %
[1] = test system: Aspergillus niger ATCC 6275
Text: (§1) FIC Index=(MIC of A with B/MIC of A)+(MIC of B with A/MIC of B)
(§2) with: • MIC of A with B: minimum concentration of product A in the combination A+B which makes it possible to obtain an inhibitory effect; • MIC of B with A: minimum concentration of product B in the combination A+B which makes it possible to obtain an inhibitory effect; • MIC of A: minimum inhibitory concentration of product A alone; • MIC of B: minimum inhibitory concentration of product B alone.
(§3) As regards the combinations tested, MIC of A with B and MIC of B with A are the respective concentrations of A and of B in the combinations which make it possible to obtain a microbial growth percentage of less than or equal to 20%.
(§4) When the FIC index value is less than or equal to 1, it is considered that the combination of test compounds has a synergistic effect.
The microbial strain Aspergillus niger ATCC 6275, and a double-concentration Sabouraud broth liquid culture medium supplemented with polyoxyethylenated (20 OE) sorbitan monopalmitate (Tween 40 from Croda) and Phytagel© BioReagent were used (i.e. a mixture of 5 g of Phytagel+0.6 g Tween 40+60 g of Sabouraud broth).
(§5) A 96-well microplate and an incubation temprature of 32.5° C. are used.
(§6) The incubation time of the microplate is: • from 18 to 24 h under aerobic conditions for Candida albicans ATCC 10231, Pseudomonas aeruginosa ATCC 9027 and Staphylococcus aureus ATCC 6538; • from 24 to 30 h under aerobic conditions for microbial Aspergillus niger ATCC 6275; • from 24 to 48 h under aerobic conditions for Enterococcus faecalis ATCC 33186.
(§7) A 10% (weight/volume) stock solution was prepared by mixing 1 g of compound in 9 ml of aqueous 1‰ agar solution. Successive dilutions were made with the 1‰ agar solution.
(§8) 50 μl of each of the daughter solutions obtained containing compound A or B are added to the microplate wells. 100 μl of Sabouraud liquid nutrient broth inoculated at double concentration with the Aspergillus niger strain and 50 μl of aqueous 1‰ agar solution are also added thereto.
(§9) 50 μl of each of the daughter solutions obtained containing compound A and 50 μl of each of the daughter solutions obtained containing compound B are added to the microplate wells. 100 μl of Sabouraud liquid nutrient broth inoculated at double concentration with the strain Aspergillus niger are also added thereto.
(§10) A positive microbial growth control was also prepared. The positive microbial growth control corresponds to a mixture of 100 μl of aqueous 1‰ agar solution with 100 μl of Sabouraud liquid nutrient broth inoculated at double concentration with the strain Aspergillus niger in the absence of compounds A and B.
(§11) An absorbance control was performed in parallel on compounds A and B alone. This control corresponds to 100 μl of double concentration sterile Sabouraud liquid nutrient broth+100 μl of double concentration compound A or B.
(§12) In the three cases (absorbance control, growth control and test), the final volume present in each of the microplate wells is 200 μl.
In the two cases (test and control), the inoculum represents the concentration of the Aspergillus niger strain present in the final volume of the wells (200 μl) and is between 2 and 6×10^5 cfu/ml of Aspergillus niger.

[2] = test system: Pseudomonas aeruginosa ATCC 9027
Text: as §1, §2, §3, §4
The microbial strain Pseudomonas aeruginosa ATCC 9027 and a double-concentration nutrient broth liquid culture medium were used.
as §5, §6, §7, §8, §9, §10, §11, §12
(§13) The test as described above (tests, absorbance control and growth control) was performed again to test the combination A+B on the following strains Enterococcus faecalis, Staphylococcus aureus, Pseudomonas aeruginosa, Candida albicans.

[3] = test system: Candida albicans ATCC 10231
Text: as §1, §2, §3, §4
The microbial strain Candida albicans ATCC 10231 and a double-concentration Sabouraud broth liquid culture medium were used.
as §5, §6, §7, §8, §9, §10, §11, §12, §13

[4] = test system: Enterococcus faecalis ATCC 33186
Text: as §1, §2, §3, §4
The microbial strain Enterococcus faecalis ATCC 33186 and a double-concentration BHI (Brain Heart Infusion) broth liquid culture medium were used.
as §5, §6, §7, §8, §9, §10, §11, §12, §13

[5] = test system: Staphylococcus aureus ATCC 6538
Text: as §1, §2, §3, §4
The microbial strain Staphylococcus aureus ATCC 6538 and a double-concentration nutrient broth liquid culture medium were used.
as §5, §6, §7, §8, §9, §10, §11, §12, §13

[6] = Example 1, first concentration giving growth <= 20%
[7] = Example 5, first concentration giving growth <= 20%
[8] = first concentration giving growth <= 20%

CCOc1cc(CCC(C)=O)ccc1O [A, 4-(3-ethoxy-4-hydroxyphenyl)butan-2-one]
microbial growth percentage ([1]; 0.0625 A alone, Example 1): 85%
microbial growth percentage ([1]; 0.0625 A alone, Example 5): 86%
microbial growth percentage ([1]; 0.125 A alone, Example 1): 47%
microbial growth percentage ([1]; 0.125 A alone, Example 5): 41%
microbial growth percentage ([1]; 0.25 A alone, Example 1): 7%
microbial growth percentage ([1]; 0.25 A alone, Example 5): 6%
% MIC of A alone [1, 6]: 0.25%
% MIC of A alone [1, 7]: 0.25%
microbial growth percentage ([2]; 0.0625 A alone): 49%
microbial growth percentage ([2]; 0.125 A alone): 82%
microbial growth percentage ([2]; 0.25 A alone): 116%
microbial growth percentage ([2]; 0.5 A alone): 67%
microbial growth percentage ([2]; 1 A alone): −4%
% MIC of A alone [2, 8]: 1%
microbial growth percentage ([3]; 0.025 A alone, Example 1): 48%
microbial growth percentage ([3]; 0.025 A alone, Example 3): 85%
microbial growth percentage ([3]; 0.025 A alone, Example 6): 69%
microbial growth percentage ([3]; 0.05 A alone, Example 1): 29%
microbial growth percentage ([3]; 0.05 A alone, Example 3): 64%
microbial growth percentage ([3]; 0.05 A alone, Example 6): 63%
microbial growth percentage ([3]; 0.1 A alone, Example 1): 16%
microbial growth percentage ([3]; 0.1 A alone, Example 3): 25%
microbial growth percentage ([3]; 0.1 A alone, Example 6): 38%
microbial growth percentage ([3]; 0.2 A alone, Example 3): 3%
microbial growth percentage ([3]; 0.2 A alone, Example 6): 4%
% MIC A ([3]; A alone, Example 3, first concentration giving growth <= 20%): 0.2%
% MIC of A alone [3, 6]: 0.1%
% MIC of A alone ([3]; Example 6, first concentration giving growth <= 20%): 0.2%
microbial growth percentage ([4]; 0.0625 A alone, Example 1): 82%
microbial growth percentage ([4]; 0.0625 A alone, Example 5): 78%
microbial growth percentage ([4]; 0.0625 A alone, Example 6): 42%
microbial growth percentage ([4]; 0.125 A alone, Example 1): 89%
microbial growth percentage ([4]; 0.125 A alone, Example 5): 86%
microbial growth percentage ([4]; 0.125 A alone, Example 6): 42%
microbial growth percentage ([4]; 0.25 A alone, Example 1): 89%
microbial growth percentage ([4]; 0.25 A alone, Example 5): 92%
microbial growth percentage ([4]; 0.25 A alone, Example 6): 33%
microbial growth percentage ([4]; 0.5 A alone, Example 1): 75%
microbial growth percentage ([4]; 0.5 A alone, Example 5): 72%
microbial growth percentage ([4]; 0.5 A alone, Example 6): 34%
microbial growth percentage ([4]; 1 A alone, Example 1): 13%
microbial growth percentage ([4]; 1 A alone, Example 5): 4%
microbial growth percentage ([4]; 1 A alone, Example 6): 24%
% MIC of A alone [4, 6]: 1%
% MIC of A alone [4, 7]: 1%
% MIC of A alone ([4]; Example 6): 1%
microbial growth percentage ([5]; 0.0625 A alone): 71%
microbial growth percentage ([5]; 0.125 A alone): 57%
microbial growth percentage ([5]; 0.25 A alone): 52%
microbial growth percentage ([5]; 0.5 A alone): 1%
% MIC of A alone [5, 8]: 0.5%

OCCOc1ccccc1 [B1, 2-phenoxyethanol]
microbial growth percentage ([1]; 0.0625 B1 alone): 95%
microbial growth percentage ([1]; 0.125 B1 alone): 89%
microbial growth percentage ([1]; 0.25 B1 alone): 8%
% MIC of B1 alone [1, 8]: 0.25%
microbial growth percentage ([2]; 0.0625 B1 alone): 45%
microbial growth percentage ([2]; 0.125 B1 alone): 39%
microbial growth percentage ([2]; 0.25 B1 alone): 39%
microbial growth percentage ([2]; 0.5 B1 alone): 0%
microbial growth percentage ([2]; 1 B1 alone): 0%
% MIC of B1 alone [2, 8]: 0.5%
microbial growth percentage ([3]; 0.0625 B1 alone): 44%
microbial growth percentage ([3]; 0.125 B1 alone): 22%
microbial growth percentage ([3]; 0.25 B1 alone): 2%
% MIC of B1 alone [3, 8]: 0.25%
microbial growth percentage ([4]; 0.0625 B1 alone): 87%
microbial growth percentage ([4]; 0.125 B1 alone): 86%
microbial growth percentage ([4]; 0.25 B1 alone): 84%
microbial growth percentage ([4]; 0.5 B1 alone): 80%
microbial growth percentage ([4]; 1 B1 alone): 6%
% MIC of B1 alone [4, 8]: 1%
microbial growth percentage ([5]; 0.0625 B1 alone): 66%
microbial growth percentage ([5]; 0.125 B1 alone): 73%
microbial growth percentage ([5]; 0.25 B1 alone): 58%
microbial growth percentage ([5]; 0.5 B1 alone): 1%
% MIC of B1 alone [5, 8]: 0.5%
